Type in all cases: biochemical
Assay [1] addresses T1, Asp-1 (Homo sapiens, UniProt Q9Y5Z0).
T1 sequence (Q9Y5Z0 63-518): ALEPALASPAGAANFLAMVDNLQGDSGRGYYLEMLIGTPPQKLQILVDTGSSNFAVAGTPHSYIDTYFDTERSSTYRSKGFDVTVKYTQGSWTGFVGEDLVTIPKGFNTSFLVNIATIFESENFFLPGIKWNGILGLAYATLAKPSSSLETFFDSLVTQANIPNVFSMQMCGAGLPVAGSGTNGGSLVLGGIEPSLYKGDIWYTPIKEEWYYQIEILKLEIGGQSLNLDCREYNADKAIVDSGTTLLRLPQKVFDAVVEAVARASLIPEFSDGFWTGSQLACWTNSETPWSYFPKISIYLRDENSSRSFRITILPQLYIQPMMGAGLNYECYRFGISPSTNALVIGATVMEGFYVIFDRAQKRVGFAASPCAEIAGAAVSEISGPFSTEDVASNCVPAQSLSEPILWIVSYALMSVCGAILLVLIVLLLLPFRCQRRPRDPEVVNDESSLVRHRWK
Kind of assay: Asp-1 inhibitory assay (FAM-[SEVNLDAEFK]-TAMRA fluorescence). The following applies: Assay (II), 2 h at room temperature, pH 4.5. On the procedure: (II) Asps-1 Inhibitory Assay
(§1) For each compound being assayed, in a 384 well plate, is added:— • a) 1 μl of a DMSO solution of the test compound (IC50 curve uses ten 1 in 2 serial dilutions from 500 μM). • b) 10 μl of substrate (FAM-[SEVNLDAEFK]-TAMRA) solution in buffer. This is prepared by diluting 2 ml of a 2 mM DMSO solution of the substrate into 400 ml of buffer (100 mM Sodium acetate pH=4.5, 1 l Milli-Q water, 0.06% Triton X-100 (0.5 ml/l), pH adjusted to 4.5 using glacial acetic acid). • c) 10 μl enzyme solution. This is prepared by diluting 4 ml of a 6.3 μM enzyme solution into 496 ml of buffer (100 mM Sodium acetate pH=4.5, 40 mM sodium chloride, 900 ml Milli-Q water, 100 ml glycerol, 0.2% CHAPS (2 g/l), pH adjusted to 4.5 using glacial acetic acid).
Blank wells (enzyme solution replaced by buffer) are included as controls on each plate. Wells are incubated for 2 h at room temperature and fluorescence read using a Tecan Ultra Fluorimeter/Spectrophotometer (485 nm excitation, 535 nm emission).

The target of assay [2] is Asp-2 (Homo sapiens, UniProt P56817). Kind of assay: Asp-2 inhibitory assay (FAM-[SEVNLDAEFK]-TAMRA fluorescence). As to conditions: Assay (I), 1 h at room temperature, pH 4.5. On the procedure:
(I) Asp-2 Inhibitory Assay
For each compound being assayed, in a 384 well plate, is added:— • a) 1 μl of a DMSO solution of the test compound (IC50 curve uses ten 1 in 2 serial dilutions from 500 μM) • b) 10 μl of substrate (FAM-[SEVNLDAEFK]-TAMRA) solution in buffer. This is prepared by diluting 2 ml of a 2 mM DMSO solution of the substrate into 400 ml of buffer (100 mM Sodium acetate pH=4.5, 1 l Milli-Q water, 0.06% Triton X-100 (0.5 ml/l), pH adjusted to 4.5 using glacial acetic acid). Aminomethyl fluorescein (FAM) and tetramethyl rhodamine (TAMRA) are fluorescent molecules which co-operate to emit fluorescence at 535 nm upon cleavage of the SEVNLDAEFK peptide. • c) 10 μl enzyme solution. This is prepared by diluting 16 ml of a 500 nM enzyme solution into 384 ml of buffer (prepared as above).
(§2) Blank wells (enzyme solution replaced by buffer) are included as controls on each plate. Wells are incubated for 1 h at room temperature and fluorescence read using a Tecan Ultra Fluorimeter/Spectrophotometer (485 nm excitation, 535 nm emission).

In assay [3] the target is Cathepsin D (Homo sapiens, UniProt P07339). Put plainly: Cathepsin D inhibitory assay (FAM-[SEVNLDAEFK]-TAMRA fluorescence). The following applies: Assay (III), 1 h at room temperature, pH 4.5; read-out: inhibition (CatD). On the procedure: (III) Cathepsin D Inhibitory Assay
Cathepsin D, sequence (P07339 65-412, species assumed): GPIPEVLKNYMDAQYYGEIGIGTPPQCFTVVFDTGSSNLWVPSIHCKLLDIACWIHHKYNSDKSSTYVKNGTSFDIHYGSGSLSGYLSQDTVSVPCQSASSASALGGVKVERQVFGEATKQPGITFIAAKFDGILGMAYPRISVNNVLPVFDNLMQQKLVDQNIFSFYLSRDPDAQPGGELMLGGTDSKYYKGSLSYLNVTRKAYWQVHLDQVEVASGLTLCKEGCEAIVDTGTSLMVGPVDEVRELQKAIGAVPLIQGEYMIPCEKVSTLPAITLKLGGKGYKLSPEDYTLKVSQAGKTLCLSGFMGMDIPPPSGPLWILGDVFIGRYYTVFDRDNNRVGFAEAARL
as §1, with “diluting 1.6” for “diluting 4”, “a 200 unit/ml (in 10 mM HCl)” for “a 6.3 μM”, “into 398.4” for “into 496”, “buffer (prepared as above).” for “buffer (100 mM Sodium acetate pH=4.5, 40 mM sodium chloride, 900 ml Milli-Q water, 100 ml glycerol, 0.2% CHAPS (2 g/l), pH adjusted to 4.5 using glacial acetic acid).”
as §2

Where two headings read alike, the source gives them in different places.

Asp-2, sequence (P56817 46-501): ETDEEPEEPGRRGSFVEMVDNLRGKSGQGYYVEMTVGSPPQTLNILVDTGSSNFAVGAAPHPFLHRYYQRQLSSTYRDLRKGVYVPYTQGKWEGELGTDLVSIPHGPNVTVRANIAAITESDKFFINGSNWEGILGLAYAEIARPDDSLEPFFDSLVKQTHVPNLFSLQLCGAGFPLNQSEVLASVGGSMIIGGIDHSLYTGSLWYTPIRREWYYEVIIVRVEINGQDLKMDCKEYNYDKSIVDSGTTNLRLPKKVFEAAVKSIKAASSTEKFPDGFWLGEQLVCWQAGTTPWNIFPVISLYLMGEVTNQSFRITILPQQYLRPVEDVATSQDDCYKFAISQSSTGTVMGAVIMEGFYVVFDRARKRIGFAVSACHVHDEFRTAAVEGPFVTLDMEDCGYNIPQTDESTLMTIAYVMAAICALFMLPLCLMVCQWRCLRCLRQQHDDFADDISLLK

For the compound `C[C@H](C[C@H](O)[C@H](Cc1ccccc1)NC(=O)c1cccc(S(C)(=O)=O)c1)C(=O)NCCC(C)(C)C` [Example E1, N-[(1S,2S,4R)-1-Benzyl-4-(3,3-dimethylbutylcarbamoyl)-2-hydroxypentyl]-3-methanesulfonyl-benzamide], the IC50 turned out to be 7.7 µM in assay [1] (read-out: Asp-1 IC50) and 0.4 µM in assay [2] (read-out: Asp-2 IC50).

As to `C#CC[C@H](C[C@H](O)[C@H](Cc1ccccc1)NC(=O)c1cccc(S(C)(=O)=O)c1)C(=O)NC1CC2CCC1C2` (stereo partly shown) [Example E2], the figures for the IC50 in assay [1] (read-out: Asp-1 IC50) and in assay [2] (read-out: Asp-2 IC50) were 5.57 µM and 0.33 µM, respectively.

Regarding `C[C@H](C[C@H](O)[C@H](Cc1ccccc1)NC(=O)c1ccc(S(C)(=O)=O)s1)C(=O)NCCC(C)(C)C` [Example E9, 5-Methanesulfonyl-thiophene-2-carboxylic acid [(1S,2S,4R)-1-benzyl-4-(3,3-dimethyl-butylcarbamoyl)-2-hydroxypentyl]-amide], the IC50 in assay [1] (read-out: inhibition (Asp-1)) is 3.3 µM; in assay [2] (read-out: inhibition (Asp-2)), 0.18 µM; in assay [3] it was 9.6 µM.

These data come from patent US7160905B2, “Hydroxyethylene compounds with Asp2 inhibitory activity” (SmithKline Beecham p.l.c., priority 2001, dated 2007).
